Source: US20080125414A1, “Method of Treatment” (priority 2002, published 2008)
“And” between values parts separate entries of the source, which are not always exact repeats. Identical values can stand only once.

Columns and labels:
Type in all cases: in vivo
[1] = test system: patients with moderate or severe neuropathic pain; assay: Multi-centre, double blind placebo controlled crossover study of devazepide as adjunctive therapy to strong opioids
[2] = test system: patient undergoing opioid therapy; assay: Clinical studies of devazepide in combination with an opioid (opioid dose reduction); settings: for reduction of opioid dose: clinical studies, devazepide with opioid
[3] = test system: patients with neuropathic pain; assay: Open label multicentre continuation study of devazepide (clinical assessment study); settings: devazepide 1.25 mg, 2.5 mg or 5.0 mg twice daily for up to 26 weeks
Source text: Patients who took part in the study had pain with a neuropathic element, and were taking regular doses of strong opioids. […] The primary objective of this study was to compare descriptive and visual analogue scale (VAS) assessments of pain and pain relief in patients with neuropathic pain. […] Devazepide treatment was continued for a period of up to six months. During the study patients were required to remain on regular doses of opioids at a dose prescribed by the investigator. Patients were assessed at clinic visits at week 1, week 2 (dose escalation) and thereafter at routine monthly clinic visits. At weekly intervals for the first eight weeks and at monthly intervals thereafter, patients recorded pain and global pain relief using VAS and descriptive pain questionnaires. The questionnaires were returned to the Investigator at the monthly visits. At each clinic visit the Investigator assessed safety and the patients' pain relief, reviewed the dosage, and decided if devazepide treatment should be continued.

Which results are given for `CN1C(=O)[C@@H](NC(=O)c2cc3ccccc3[nH]2)N=C(c2ccccc2)c2ccccc21` [devazepide, 3s-(−) 1,3dihydro-3-(2-indolecarbonylamino)-1-methyl-5-phenyl-2H-1,4-benzodiazepin-2-one]?
Analgesic use expressed as a percentage of pre-treatment use (sum of daily dose) ([1]; in vivo): 100% and 67%; Analgesic use expressed as a percentage of pre-treatment use (sum of daily dose) ([1]; patient ap06/05, analgesic morphine (mg), devazepide 1.25 mg twice daily for two weeks): 104%; Analgesic use expressed as a percentage of pre-treatment use (sum of daily dose) ([1]; patient ap06/05, analgesic morphine (mg), devazepide 5 mg twice daily for two weeks): 100%; Analgesic use expressed as a percentage of pre-treatment use (sum of daily dose) ([1]; patient ap06/05, analgesic tramadol (mg), devazepide 1.25 mg twice daily for two weeks): 79%; Analgesic use expressed as a percentage of pre-treatment use (sum of daily dose) ([1]; patient ap06/05, analgesic tramadol (mg), devazepide 5 mg twice daily for two weeks): 54%; Analgesic use expressed as a percentage of pre-treatment use (sum of daily dose) ([1]; patient gg01/01, analgesic co-codamol (tablets), devazepide 1.25 mg twice daily for two weeks): 106%; Analgesic use expressed as a percentage of pre-treatment use (sum of daily dose) ([1]; patient gg01/01, analgesic co-codamol (tablets), devazepide 5 mg twice daily for two weeks): 78%; Analgesic use expressed as a percentage of pre-treatment use (sum of daily dose) ([1]; patient gg03/03, analgesic morphine (mg), devazepide 1.25 mg twice daily for two weeks): 55%; Analgesic use expressed as a percentage of pre-treatment use (sum of daily dose) ([1]; patient gg03/03, analgesic morphine (mg), devazepide 5 mg twice daily for two weeks): 93%; Analgesic use expressed as a percentage of pre-treatment use (sum of daily dose) ([1]; patient ng02/02, analgesic diclofenac (mg), devazepide 1.25 mg twice daily for two weeks): 17%; Analgesic use expressed as a percentage of pre-treatment use (sum of daily dose) ([1]; patient ng02/02, analgesic diclofenac (mg), devazepide 5 mg twice daily for two weeks): 50%; Analgesic use expressed as a percentage of pre-treatment use (sum of daily dose) ([1]; patient ng02/02, analgesic morphine (mg), devazepide 1.25 mg twice daily for two weeks): 87%; Analgesic use expressed as a percentage of pre-treatment use (sum of daily dose) ([1]; patient ng02/02, analgesic morphine (mg), devazepide 5 mg twice daily for two weeks): 84%; Analgesic use expressed as a percentage of pre-treatment use (sum of daily dose) ([1]; patient ng05/05, analgesic morphine (mg), devazepide 1.25 mg twice daily for two weeks): 104%; Analgesic use expressed as a percentage of pre-treatment use (sum of daily dose) ([1]; patient ng05/05, analgesic morphine (mg), devazepide 5 mg twice daily for two weeks): 100%; Analgesic use expressed as a percentage of pre-treatment use (sum of daily dose) ([1]; patient ng05/05, analgesic paracetamol (mg), devazepide 1.25 mg twice daily for two weeks): 48%; Analgesic use expressed as a percentage of pre-treatment use (sum of daily dose) ([1]; patient ng05/05, analgesic paracetamol (mg), devazepide 5 mg twice daily for two weeks): 14%; Analgesic use expressed as a percentage of pre-treatment use (sum of daily dose) ([1]; patient sj03/03, analgesic morphine (mg), devazepide 1.25 mg twice daily for two weeks): 93%; Analgesic use expressed as a percentage of pre-treatment use (sum of daily dose) ([1]; patient sj03/03, analgesic morphine (mg), devazepide 5 mg twice daily for two weeks): 97%; Analgesic use expressed as a percentage of pre-treatment use (sum of daily dose) ([1]; patient sj03/03, analgesic morphine (ml), devazepide 1.25 mg twice daily for two weeks): 13%; Analgesic use expressed as a percentage of pre-treatment use (sum of daily dose) ([1]; patient sj03/03, analgesic morphine (ml), devazepide 5 mg twice daily for two weeks): 5%; Analgesic use expressed as a percentage of pre-treatment use (sum of daily dose) ([1]; patient sj10/73, analgesic dihydrocodeine (mg), devazepide 1.25 mg twice daily for two weeks): 100%; Analgesic use expressed as a percentage of pre-treatment use (sum of daily dose) ([1]; patient sj10/73, analgesic dihydrocodeine (mg), devazepide 5 mg twice daily for two weeks): 50%; Analgesic use expressed as a percentage of pre-treatment use (sum of daily dose) ([1]; patient sj10/73, analgesic morphine (mg), devazepide 1.25 mg twice daily for two weeks): 100%; Analgesic use expressed as a percentage of pre-treatment use (sum of daily dose) ([1]; patient sj10/73, analgesic morphine (mg), devazepide 5 mg twice daily for two weeks): 98%; Analgesic use expressed as a percentage of pre-treatment use (sum of daily dose) ([1]; patient sj10/73, analgesic paracetamol (mg), devazepide 1.25 mg twice daily for two weeks): 75%; Analgesic use expressed as a percentage of pre-treatment use (sum of daily dose) ([1]; patient sj10/73, analgesic paracetamol (mg), devazepide 5 mg twice daily for two weeks): 50%; reduction of opioid dose ([2]; in others): ≤ 75%; reduction of opioid dose ([2]; in some cases): ≤ 95%; effect in combination with an opioid ([2]; opioid dose reduced concurrent with improved analgesia): superpotentiating; patients who appeared to achieve long-term pain relief ([3]; of seventeen patients, long-term = 5-26 weeks, with regular opioids): ten; daily opioid dose ([3]; several patients): markedly reduced
